From patent US20230225991A1, “COMPOUNDS FOR USE IN THE TREATMENT OF ACUTE INTERMITTENT PORPHYRIA” (VESTLANDETS INNOVASJONSSELSKAP AS, priority 2019, published 2023)
Marks after values point to notes of the source that are not given here.

Columns and labels:
[1] = biological target: T1, WT-HMBS (Homo sapiens, UniProt P08397); assay: Steady-state enzyme kinetics of HMBS (KM, Vmax); assay type: biochemical; conditions: for Effect on steady-state enzyme kinetics of HMBS: 84 μM compound; for Vmax: variable PBG (0-1 mM), 37° C.
T1 construct: Full-length HMBS was cloned into pET-28a(+)-TEV vector and transformed into BL21 (DE3) cells for expression; 6xHis (N, cleaved yes); TEV protease cleavage site (N, cleaved yes); made in house; host or cells: E. coli BL21 (DE3)
T1 sequence (P08397 1-361): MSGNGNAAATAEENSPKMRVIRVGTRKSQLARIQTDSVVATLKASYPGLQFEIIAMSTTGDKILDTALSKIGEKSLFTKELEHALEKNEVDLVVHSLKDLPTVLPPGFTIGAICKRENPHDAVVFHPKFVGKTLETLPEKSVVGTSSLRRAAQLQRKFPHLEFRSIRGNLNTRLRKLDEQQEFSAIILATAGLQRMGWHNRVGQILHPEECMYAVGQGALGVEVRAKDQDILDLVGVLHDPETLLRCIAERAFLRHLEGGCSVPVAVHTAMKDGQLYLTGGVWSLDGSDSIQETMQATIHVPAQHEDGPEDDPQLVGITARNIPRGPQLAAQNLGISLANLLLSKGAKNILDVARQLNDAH
Description: The effect of the compounds on the stability of HMBS activity was assayed by pre-incubating the HMBS (4-5 μg) in 50 mM HEPES pH 8.2, 84 μM compound and 2% DMSO for 20 min at 70° C., and then placed on ice for 5 min. The enzymatic activity at 37° C. was subsequently measured as reported previously (Bustad et al., Bioscience reports 2013; 3 3(4)). Controls without compound but with equal concentration of DMSO were included. The remaining activity in the presence of compounds was normalized relative to DMSO-control (relative activity). […] USA, www.graphpad.com.
(§1) Limited tryptic proteolysis was also applied to compound BG-1. Proteolysis of WT-HMBS provided three major bands with relative content 34.5±0.3%, 14.7±0.8% and 50.9±0.5%, corresponding to remaining full-length HMBS (˜42.5 kDa), and two fragments of ˜41.0 kDa and ˜31.5 kDa, respectively (FIG. 1). […] The effect of this compound at 84 μM on the steady-state enzyme kinetics of HMBS was then calculated (Table 2).

[2] = biological target: T1, WT-HMBS; assay: Limited proteolysis by trypsin; assay type: biochemical; conditions: 84 μM compound; for Protection against tryptic proteolysis: 2% DMSO
Description: Limited proteolysis by trypsin was performed at 37° C. in 20 mM HEPES, 150 mM NaCl, 2% DMSO, pH 8.2, with 0.15 μg/μl HMBS in the absence (DMSO-control) or presence of 84 μM compound and 2% DMSO. The proteolysis was initiated by adding 1 μg/ml TPCK-treated trypsin (Sigma-Aldrich). After 30 min, aliquots were removed and transferred to Laemmli loading buffer containing 2 μg/ml soybean trypsin inhibitor. Samples resolved by electrophoresis with 10% Mini-Protean® TGX™ gels (Bio-Rad Laboratories, Inc.) were analyzed using the Image Lab™ software (Bio-Rad Laboratories, Inc.). The unpaired t-test (two tailed) was performed using GraphPad Prism.
as §1

[3] = biological target: T1, WT-HMBS; assay: DSF thermal upshift (ΔTm) of HMBS; assay type: binding
Description: Compounds BG-2, BG-3 and BG-4 were tested on recombinant WT-HMBS using DSF and tryptic proteolysis.

[4] = biological target: T2, HMBS in HepG2 cells over-expressing HMBS (Homo sapiens, UniProt P08397); assay: HMBS protein level in WT-HMBS stably transfected HepG2 cells (western immunoblot); assay type: cell-based; conditions: 0-168 μM compound, 2% DMSO, 24 h; quantitative western immunoblotting
T2 construct: expressed in transfected cells; host or cells: HepG2 (stably transfected, G418-selected)
T2 sequence (P08397 1-361): T1 sequence (P08397 1-361)
Description: The human hepatoma HepG2 cells were obtained from Leibniz-Institut DSMZ—Deutsche Sammlung von Mikroorganismen und Zellkulturen GmbH. Cells were maintained in RPMI 1640, GlutaMAX™ (Thermo Fisher Scientific) medium supplemented with 10% heat-inactivated fetal bovine serum and 1% penicillin-streptomycin (Thermo Fisher Scientific) in a humidified incubator with 5% CO2 at 37° C. HMBS cDNA was inserted into the pcDNA3.1(+) cloning vector (Thermo Fisher Scientific). The HepG2 cells were then transfected with the pcDNA3.1(+) vector containing HMBS using FuGENE®HD Transfection Reagent (Promega, Madison, Wis.) according to the manufacturer's recommendations. Stably transfected clones were selected for resistance to the neomycin analogue G418 (Thermo Fisher Scientific). WT-HMBS transfected HepG2 cells (2×10^6) were seeded and grown for 22 h before compounds were added to final concentrations of 0, 40, 84, 120 and 168 μM in 2% DMSO. Cells were harvested after 24 h and analyzed as described below. […]
Cell lysate samples (20 μg total protein) were separated by electrophoresis and subsequently transferred to a PVDF transfer membrane (Bio-Rad). […] Chemiluminescence of secondary Ab-HRP conjugates was elicited using Luminata™ Crescendo Western HRP Substrate (Merck Millipore, Burlington, Mass.), imaged with Gel Doc™ XR+ (Bio-Rad) and quantified using Image Lab software (Bio-Rad). […]

Vmax ([1]; Table 3, 84 μM compound with 2% DMSO, control 61 ± 2) [nmol/min/mg] | Protection against tryptic proteolysis ([2]; Table 3) | ΔTm at 122 µM ([3]; Table 3, average compound concentration 122 μM (2% DMSO)) [°C] | SMILES | Effect on steady-state enzyme kinetics of HMBS [1] | Relative amount of HMBS in HepG2 cells [4] | Vmax ([1]; 84 μM compound in 2% DMSO, DMSO control 61 ± 2) [nmol/min/mg] | Protection against tryptic proteolysis ([2]; remaining full-length HMBS relative to DMSO) | Protection against proteolysis ([2]; limited tryptic proteolysis) | ΔTm at 122 µM ([3]; thermal upshift at y = 0.5 in scaled fluorescence curves, average compound concentration 122 μM (2% DMSO)) [°C]
54 ± 2 | +* (+, >4%) | 4.9 | O=C(c1ccccc1)c1ccc(Cl)c([N+](=O)[O-])c1 [BG-2] | weak mixed inhibitory effect | increased the HMBS protein levels similarly to BG-1 | – | – | – | –
– | – | – | O=Cc1cc(Cc2ccccc2Cl)cc([N+](=O)[O-])c1O [BG-1] | reduction in both KM and Vmax | increasing relative amount of HMBS with increasing concentration | 56 ± 1 | ++** (++, 10% remaining full-length HMBS relative to DMSO.) | exhibited protection against proteolysis | 1.6
